Test results published in paper PMC6085350, “Small molecule inhibitors of RAS-effector protein interactions derived using an intracellular antibody fragment” (Nature Communications, 2018).

Experiments:
KRAS^G12V-GppNHp = target: T1, KRAS^G12V-GppNHp (Homo sapiens, UniProt P01116, G12V); assay: SPR binding to KRAS G12V-GppNHp; conditions: 100 μM, run in triplicate
T1 construct: made in house; host or cells: E. coli (pGEX-2T; strain named only for the HRAS plasmids)
Description: A BIAcore T100 (GE Healthcare) was used to screen the fragment library for RAS binders. A polyclonal goat anti-GST antibody (GE Healthcare) was immobilized on a CM5 sensor chip (GE Healthcare) by the amine coupling method. To immobilize the antibody on CM5 chip, the chip was first activated by injecting 100 µl mixture of 0.2 M EDC (N-ethyl-N-(dimethylaminopropyl) carbodiimide hydrochloride) and 0.05 M NHS (N-hydroxysuccinimide) at 10 µl/min flow rate. Furthermore, 100 µg/ml anti-GST antibody in 10 mM sodium acetate, pH 5.0 was injected at 5 µl/min for 900 s and immobilized until 20,000 ~ 25,000 RU. After immobilization the chip was immediately inactivated by injecting 1 M ethanolamine, pH 8.5 at 10 µl/min for 600 s. The chip was kept running in the HBS buffer (GE Healthcare) comprising 10 mM HEPES, pH 8.0, 150 mM NaCl. Of all, 5 µg/ml recombinant GST, GST-HRAS^G12V-GTPγS or GST-HRAS^G12V-GDP proteins were injected into flow cell Fc4, Fc2 and Fc3, respectively for trapping through the immobilized anti-GST antibody. The GST-HRAS^G12V-GTPγS, GST-KRAS^G12V-GppNHpp, or GST-HRAS^G12V-GDP proteins were injected at 5 µl/min for 900 s and usually reached approximately 2000–2500 RU. The GST was injected at same flow rate until about 1200–1350 RU which is 0.54 times less than the GST-HRAS^G12V-GTPγS or GST-HRAS-GDP capture amounts, taking into consideration relative molecular weights (GST, 26KDa, GST-RAS, 48KDa, respectively). Before fragment library screening, the running buffer was replaced by 20 mM Tris, pH 8, 150 mM NaCl, 5 mM MgCl2, 5% DMSO. DMSO solvent correction curves were generated by injecting the running buffers with serial concentrations of DMSO ranging from 4.5 to 6%. […] The individual compounds were injected at 30 µl for 60 s at 30 µl/min flow rate over flow cells Fc1, Fc2, Fc3 and Fc4. The captured GST and GST-RAS were removed from the chip by rinsing with 40 µl 10 mM glycine-HCl, pH 2.1 at 20 µl/min flow rate after every 48 compounds sequential injection. The chip was regenerated by injecting new GST and GST-RAS proteins as described above.

[1] = target: T2, HRAS^G12V interacting with PI3Kα, PI3Kγ, CRAF-RBD or full-length CRAF and RALGDS-RBD (Homo sapiens, UniProt P01112, G12V); assay: BRET2 RAS-effector PPI assay, HRAS G12V; assay type: cell-based; conditions: HEK293T, 5, 10 and 20 μM
T2 construct: Transfection vector encoded full-length RAS was fused to the donor molecule RLuc8; expressed in transfected cells; host or cells: HEK293T
Excerpt: (§1) Fig. 4 Abd-7 disrupting RAS-effector interactions. HEK293T cells were transfected with different BRET-based RAS biosensor expression vectors to evaluate the inhibition of RAS PPI in cells by compound Abd-7. Transfection vector encoded full-length RAS was fused to the donor molecule RLuc8 and the effectors fused to the acceptor molecule GFP[2]. a Effect of Abd-2 and Abd-7 on KRAS^G12D interaction with PI3Kα, PI3Kγ, CRAF or RALGDS. The BRET signal is plotted as a % of control cells treated with DMSO only and dose response to 5, 10 and 20 μM of each compound. b Effect of Abd-2 and Abd-7 on the BRET signal from interaction of KRAS^G12 mutants (Rluc8-KRAS^G12) and full-length CRAF (GFP[2]-CRAF FL). c, d Effect of Abd-2 and Abd-7 on the interaction of NRAS^Q61H (c) and HRAS^G12V (d) with various RAS effectors domain and with full-length CRAF. The BRET ratio corresponds to the light emitted by the GFP[2] acceptor constructs (515 nm ± 30) upon addition of Coelenterazine 400a divided by the light emitted by the RLuc8 donor constructs (410 nm ± 80). The normalized BRET ratio is the BRET ratio normalized to the DMSO negative and calculated as follows: (BRETcompound/BRETDMSO) x 100, where BRETcompound corresponds to the BRET ratio for the compound-treated cells, BRETDMSO to the DMSO-treated cells. Each experiment was repeated at least three times. […]

[2] = target: T3, KRAS^G12D interaction with PI3Kα, PI3Kγ, CRAF RBD and RALGDS RA (Homo sapiens, UniProt P01116, G12D); assay: BRET2 RAS-effector PPI assay, KRAS G12D; assay type: cell-based; conditions: HEK293T, 5, 10 and 20 μM, 20 h
T3 construct: Transfection vector encoded full-length RAS was fused to the donor molecule RLuc8; expressed in transfected cells; host or cells: HEK293T
Excerpt: as §1

Row | binding to KRAS^G12V-GppNHp (SPR) (KRAS^G12V-GppNHp) | effect on BRET signal, HRAS^G12V with effectors [1] | effect on BRET signal, KRAS^G12D with PI3Kα, PI3Kγ, CRAF RBD, RALGDS RA [2] | Compound
1 | binds | does not | no effect | O=C(NCC1COc2ccccc2O1)c1ccco1 (centres unmarked) [Abd-2]
2 | – | interferes | reduces the BRET signal | COc1nc(-c2cccc3c2OCCO3)ccc1Nc1ccc(CN(C)C)cc1 [Abd-7]
